Patent publication US20040049072A1, “RXR modulators with improved pharmacologic profile” (priority 1999, published 2004)
Entries after “also recorded” stand apart in the source; their conditions may differ.

Legend:
[1] = system: mice transgenic for the human apolipoprotein A-I gene; test: transgenic mice carrying the human apo A-I gene (HDL cholesterol, triglycerides); assay type: in vivo, mouse
Description: Mice transgenic for the human apolipoprotein A-I gene (obtained from Jackson Laboratory) were used to evaluate PPARalpha mediated effects on HDL cholesterol. The mice were handled as described above for db/db mice, except that they were fed Purina 5001.

RXRα homodimer (RXR:RXR) = molecular target: T1, RXRα homodimer (RXR:RXR) (Homo sapiens, UniProt P19793); test: RXR homodimer co-transfection assay in CV-1 cells; assay type: cell-based; details: for activity on the RXR:RXR homodimer: cotransfection assay; for RXR:RXR CV-1 (%) Antag.: maximal repression (100%) in presence of 32 nM LGD1069; for RXR:RXR CV-1 (%) Ag.: maximal response relative to ATRA; for EC50 / IC50: not calculated if efficacy <10%; for EC50: read-out: RXRα Homodimer Cotransfection Assay Agonist EC50; for IC50: in presence of LGD1069, read-out: RXRα Homodimer Cotransfection Assay Antagonist IC50
T1 sequence (P19793 1-462): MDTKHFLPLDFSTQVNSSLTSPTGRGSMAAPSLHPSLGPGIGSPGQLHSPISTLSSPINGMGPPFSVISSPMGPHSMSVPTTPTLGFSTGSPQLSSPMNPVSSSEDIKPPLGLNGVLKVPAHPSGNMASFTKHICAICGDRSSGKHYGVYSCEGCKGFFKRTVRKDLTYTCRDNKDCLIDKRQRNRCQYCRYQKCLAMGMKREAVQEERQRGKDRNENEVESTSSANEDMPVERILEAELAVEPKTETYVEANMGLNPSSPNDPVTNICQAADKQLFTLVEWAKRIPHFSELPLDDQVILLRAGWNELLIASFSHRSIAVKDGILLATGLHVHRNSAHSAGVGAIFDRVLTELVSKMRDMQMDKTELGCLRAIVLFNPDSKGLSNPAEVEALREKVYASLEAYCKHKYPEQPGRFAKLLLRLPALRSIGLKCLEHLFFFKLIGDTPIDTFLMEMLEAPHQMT
Description: In the co-transfection assay, cloned cDNA for one or more IRs (e.g., human RARα, RXRα, or PPARγ), alone or in combination (i.e. for heterodimer assays) under the control of a constitutive promoter (e.g., the SV 40, RSV or CMV promoter) is introduced by transfection (a procedure to introduce exogenous genes into cells) into a background cell substantially devoid of endogenous IRs. These introduced gene(s) direct the recipient cells to make the IR protein(s) of interest. A further gene is also introduced (co-transfected) into the same cells in conjunction with the IR gene(s). This further gene, comprising the cDNA for a reporter protein, such as firefly luciferase (LUC), controlled by an appropriate hormone responsive promoter containing a hormone response element (HRE). This reporter plasmid functions as a reporter for the transcriptional-modulating activity of the target IR(s). Thus, the reporter acts as a surrogate for the products (mRNA then protein) normally expressed by a gene under control of the target receptor(s) and their native hormone(s).
Exposing the transfected cells to an agonist ligand compound increases reporter activity in the transfected cells. This activity can be conveniently measured, e.g., by increasing luciferase production and enzymatic activity, which reflects compound-dependent, IR-mediated increases in reporter transcription. […] Increasing concentrations of an antagonist will decrease the reporter signal (e.g., luciferase production). The co-transfection assay is therefore useful to detect both agonists and antagonists of specific IRs. Furthermore, it determines not only whether a compound interacts with a particular IR, but whether this interaction mimics (agonizes) or blocks (antagonizes) the effects of native or synthetic regulatory molecules on target gene expression, as well as the specificity and strength of this interaction.
The receptor expression plasmid was cotransfected along with a reporter plasmid at 50 ng/well, the internal control plasmid pRS-β-Gal at 50 ng/well and filler DNA, pGEM, at 90 ng/well.
Six hours after transfection, media was removed and the cells were washed with phosphate-buffered saline (PBS). Media containing compounds of the present invention in concentrations ranging from 10^−10 to 10^−5 M were added to the cells. […] Retinoids were dissolved in dimethylsulfoxide for use in the transcriptional activation assays. Two to three replicates were used for each sample. Transfections and subsequent procedures were performed on a Biomek 1000 automated workstation.
After 40 hours, the cells were washed with PBS, lysed with a detergent-based buffer and assayed for LUC and β-Gal activities using a luminometer or spectrophotometer, respectively. For each replicate, the normalized response (NR) was calculated as: […]
The mean and standard error of the mean (SEM) of the NR were calculated. Data were plotted as the response of the compound compared to the reference compounds over the range of the dose-response curve. […] Antagonist activity was determined by testing the amount of LUC expression in the presence of the RXR agonists described above at the EC50 concentration for such known compounds. […] In addition, the efficacy of antagonists was determined as a function (%) of maximal inhibition.

[2] = Table 3 c4, in presence of 3.2×10^−8 M LGD1069

| SMILES | triglycerides [1] | RXRα Homodimer Cotransfection Assay Agonist Efficacy (%) (RXRα homodimer (RXR:RXR); Table 3 c2, mean of n > 3) | RXRα Homodimer Cotransfection Assay Agonist Efficacy (%) (RXRα homodimer (RXR:RXR); [2]) | activity on the RXR:RXR homodimer (RXRα homodimer (RXR:RXR)) | RXR:RXR CV-1 (%) Antag. (RXRα homodimer (RXR:RXR)) | RXR:RXR CV-1 (%) Ag. (RXRα homodimer (RXR:RXR)) | EC50 (RXRα homodimer (RXR:RXR)) | IC50 (RXRα homodimer (RXR:RXR)) |
| --- | --- | --- | --- | --- | --- | --- | --- | --- |
| COc1c(/C(C)=C/C=C/C(C)=C/C(=O)O)cc(C(C)(C)C)cc1C(C)(C)C [Compound L1] | substantially raise triglycerides | 62% | 7% | full RXR homodimer agonists; also recorded: agonist activity similar in efficacy and potency to the known RXR agonist, LG100268 | 7% | 62% | 33 nM | – |
| CCOc1c(/C(C)=C/C=C/C(C)=C/C(=O)O)cc(C(C)(C)C)cc1C(C)(C)C [Compound L2] | – | 11% | 62% | partial agonist | 62% | 11% | 14 nM | 9 nM |
| CCCOc1c(/C(C)=C/C=C/C(C)=C/C(=O)O)cc(C(C)(C)C)cc1C(C)(C)C [Compound L3] | – | 2% | 90% | highly efficacious and potent antagonist activity with little or no agonist activity | 90% | 2% | – | 5 nM |
| CCCCOc1c(/C(C)=C/C=C/C(C)=C/C(=O)O)cc(C(C)(C)C)cc1C(C)(C)C [Compound L4] | – | 1% | 92% | highly efficacious and potent antagonist activity with little or no agonist activity | 92% | 1% | – | 9 nM |
| CCCCCCCOc1c(/C(C)=C/C=C/C(C)=C/C(=O)O)cc(C(C)(C)C)cc1C(C)(C)C [Compound L5] | – | 0% | 94% | full antagonists; also recorded: highly efficacious and potent antagonist activity with little or no agonist activity | 94% | 0% | – | 10 nM |
